Assay results reported in US20250353825A1, “CANNABICYCLOL DERIVATIVES AND PREPARATION METHODS THEREOF” (priority 2023, published 2025).
Like-named read-outs stand apart in the source and are kept apart here.

Columns and labels:
Type in all cases: cell-based
GSC-3 (3#-GSC) = experiment: MTS cell viability assay, glioblastoma stem cells GSC-3 (3#-GSC); details: for selective anti-glioma stem cell viability: judged in words from preliminary viability screening against 3#-GSC, 293T and U251
Experimental: (§1) Primary viability screening: (1) the synthesized compounds 3a to 13d were respectively dissolved in DMSO to prepare a 40 μg/mL cannabicyclol and cannabicyclol derivative solutions.
(§2) (2) A control group: a 200 μL DMSO solvent.
(§3) (3) The solutions of compounds 3a to 13d were diluted in a twofold gradient to obtain cannabicyclol and cannabicyclol derivative solutions at concentrations of 40 μg/mL, 20 μg/mL, 10 μg/mL, 5 μg/mL, 2.5 μg/mL, 1.25 μg/mL, and 0.625 μg/mL, and 0.3125 μg/mL, respectively.
(§4) (4) Three glioblastoma stem cells (GSC-3, GSC-12, and GSC-18), three pancreatic cancer cell-derived stem cells (PANC-1-CSC, BXPC-3-CSC, and ASPC1-CSC), three liver cancer cell-derived stem cells (HepG2-CSC, MHCC97H-CSC, and SMMC7721-CSC), HEK-293T cells, 16 tumor cells (U251, U87, T98G, PANC1, BXPC3, ASPC1, HepG2, MHCC97H, SMMC7721, PC3, SKOV3, MDA-MB231, A549, HCT116, HEC-1B, MKN28), and differentiated glioblastoma stem cells (GSC-3diff and GSC-12diff) derived from GSC-3 and GSC-12 (all of the cells were provided by the Laboratory of Tumor Animal Model Preparation and Application Research, West China Hospital, Sichuan University) were inoculated into a 96-well plate at a concentration of 2×10^4 cells/well, and 100 μL of culture medium was then added to each well;
(§5) (5) 2) HEK-293T, GSC-3diff, GSC-12diff, and the 16 tumor cells were added with DMEM, 10% FBS, and 1% double antibody culture medium. Cancer stem cells (CSCs) were added with serum-free stem cell medium consisting of DMEM/F12, EGF (20 ng/mL), bFGF (20 ng/mL), B27 (1×), and 1% double antibody culture medium.
(§6) (6) Inoculated cells were put into a cell culture incubator for 24 hours, and after the cells were well adhered to the wall, the culture medium in the 96-well plate was discarded.
(§7) (7) 200 μL cannabicyclol and cannabicyclol derivatives solutions at different concentrations were added to the cultured cells.
(§8) (8) The experiment was set up with 3 replicates.
(§9) (9) The 96-well plate was placed in a cell culture incubator, and incubation was continued at 37° C. and 5% CO2 for 72 hours. Then, 100 μL of cannabicyclol and cannabicyclol derivative solution per well was discarded (100 μL of DMSO solvent was discarded for the control group), and 20 μL of LMTS (CellTiter AQueous Non-Radioactive Cell Proliferation Assay, #G3581) was mixed and continued to be placed in the cell incubator for 2 hours of incubation.
(§10) (10) The absorbance value at 490 nm was measured on an enzyme labeling apparatus, and the IC50 value was calculated.

U251 = experiment: MTS cell viability assay, U251
Experimental: as §1, §2, §3, §4, §5, §6, §7, §8, §9, §10

[1] = MTS cell viability assay, HEK-293T (293T) normal cells; details: human
Experimental: as §1, §2, §3, §4, §5, §6, §7, §8, §9, §10

[2] = primary viability screening, 72 hours, MTS, test concentration not stated
[3] = primary viability screening, 72 hours, MTS, test concentration not stated, read-out: Cell viability in 293T (%)
[4] = HEK-293T (293T) normal cells, primary viability screening, 72 hours, MTS, test concentration not stated, read-out: Cell viability in 293T (%)

| SMILES | selective anti-glioma stem cell viability (GSC-3 (3#-GSC)) | Cell viability in 3#-GSC (%) (GSC-3 (3#-GSC); [2]) | Cell viability in U251 (%) (U251; [2]) | viability at 72 h [1, 3] | Cell viability in 3#-GSC (%) (GSC-3 (3#-GSC); 72 h) | Cell viability in U251 (%) (U251; human, 72 h) | viability at 72 h [1] | viability at 72 h [1, 4] |
| --- | --- | --- | --- | --- | --- | --- | --- | --- |
| CC12CCC3C1C(c1c(O)cccc1O2)C3(C)C (centres unmarked) [Compound 3b] | selective anti-glioma stem cell viability | 32% | 97% | 97% | – | – | – | – |
| Cc1cc(O)c2c(c1)OC1(C)CCC3C1C2C3(C)C (centres unmarked) [Compound 3c] | – | – | – | – | ≥100% | 88% | ≥ 100% | – |
| CCCc1cc(O)c2c(c1)OC1(C)CCC3C1C2C3(C)C (centres unmarked) [Compound 3d] | – | 40% | 71% | – | – | – | – | 91% |
| CCCCc1cc(O)c2c(c1)OC1(C)CCC3C1C2C3(C)C (centres unmarked) [Compound 3e] | – | 30% | 17% | – | – | – | – | 60% |
| CCCCCCc1cc(O)c2c(c1)OC1(C)CCC3C1C2C3(C)C (centres unmarked) [Compound 3f] | a certain degree of selective anti-glioma stem cell viability | 20% | 78% | – | – | – | – | 18% |
| CCCCCCCc1cc(O)c2c(c1)OC1(C)CCC3C1C2C3(C)C (centres unmarked) [Compound 3g] | – | 90% | 79% | – | – | – | – | 11% |
| CCCCCCCCc1cc(O)c2c(c1)OC1(C)CCC3C1C2C3(C)C (centres unmarked) [Compound 3h] | – | 87% | 75% | – | – | – | – | 16% |
| CCCCCCCCCCCCCc1cc(O)c2c(c1)OC1(C)CCC3C1C2C3(C)C (centres unmarked) [Compound 3i] | – | 33% | 79% | – | – | – | – | 8% |
| CC12CCC3C1C(c1c(O)cc(-c4ccccc4)cc1O2)C3(C)C (centres unmarked) [Compound 3k] | – | – | – | – | 52% | 15% | 45% | – |
| Cc1ccc(-c2cc(O)c3c(c2)OC2(C)CCC4C2C3C4(C)C)cc1 (centres unmarked) [Compound 3l] | – | – | – | – | 51% | 45% | 62% | – |
| Cc1cccc(-c2cc(O)c3c(c2)OC2(C)CCC4C2C3C4(C)C)c1 (centres unmarked) [Compound 3m] | weak selective anti-glioma stem cell viability | – | – | – | 42% | 90% | ≥ 100% | – |
| Cc1ccccc1-c1cc(O)c2c(c1)OC1(C)CCC3C1C2C3(C)C (centres unmarked) [Compound 3n] | – | – | – | – | 41% | 17% | 50% | – |
| Cc1cc(C)cc(-c2cc(O)c3c(c2)OC2(C)CCC4C2C3C4(C)C)c1 (centres unmarked) [Compound 3o] | – | – | – | – | 64% | 88% | 81% | – |
| CC(C)(C)c1ccc(-c2cc(O)c3c(c2)OC2(C)CCC4C2C3C4(C)C)cc1 (centres unmarked) [Compound 3p] | weak selective anti-glioma stem cell viability | – | – | – | 67% | 97% | ≥ 100% | – |
| COc1ccc(-c2cc(O)c3c(c2)OC2(C)CCC4C2C3C4(C)C)cc1 (centres unmarked) [Compound 3q] | – | – | – | – | 39% | 19% | 40% | – |
| CC12CCC3C1C(c1c(O)cc(-c4ccc(F)cc4)cc1O2)C3(C)C (centres unmarked) [Compound 3r] | – | – | – | – | 43% | 76% | 45% | – |
| CC12CCC3C1C(c1c(O)cc(-c4ccc(Cl)cc4)cc1O2)C3(C)C (centres unmarked) [Compound 3s] | – | – | – | – | 49% | 91% | 64% | – |
| CCCCCc1cc(O)c2c(c1)OC1(C)CCC3C(C)C2C31 (centres unmarked) [Compound 3u] | – | 30% | 72% | – | – | – | – | 78% |
| CCCCCc1cc(O)c2c(c1)OC1(C)CCC3C(CC)C2C31 (centres unmarked) [Compound 3v] | – | 30% | 71% | 79% | – | – | – | – |

| SMILES | selective anti-glioma stem cell viability (GSC-3 (3#-GSC)) | Cell viability in 3#-GSC (%) (GSC-3 (3#-GSC); [2]) | Cell viability in U251 (%) (U251; [2]) | viability at 72 h [1, 3] | Cell viability in 3#-GSC (%) (GSC-3 (3#-GSC); 72 h) | Cell viability in U251 (%) (U251; human, 72 h) | viability at 72 h [1] | viability at 72 h [1, 4] |
| --- | --- | --- | --- | --- | --- | --- | --- | --- |
| CCCCCc1cc(O)c2c(c1)OC1(C)CCC3C(c4ccccc4)C2C31 (centres unmarked) [Compound 3x] | – | 70% | 77% | – | – | – | – | 97% |
| CCCCCc1cc(O)c2c(c1)OC1(C)CCC3C(C4CC4)C2C31 (centres unmarked) [Compound 3y] | – | 47% | 98% | – | – | – | – | ≥ 100% |
| C=CCOc1cc(CCCCC)cc2c1C1C3C(CCC3(C)O2)C1(C)C (centres unmarked) [Compound 7a] | – | ≥100% | 81% | – | – | – | – | 77% |
| CCCCCc1cc(OC)c2c(c1)OC1(C)CCC3C1C2C3(C)C (centres unmarked) [Compound 7b] | – | ≥100% | 91% | – | – | – | – | 95% |
| CCCCCc1cc(OCC)c2c(c1)OC1(C)CCC3C1C2C3(C)C (centres unmarked) [Compound 7c] | – | ≥100% | 80% | – | – | – | – | 79% |
| CCCCCc1cc(OCCC)c2c(c1)OC1(C)CCC3C1C2C3(C)C (centres unmarked) [Compound 7d] | – | ≥100% | 82% | – | – | – | – | 77% |
| C#CCOc1cc(CCCCC)cc2c1C1C3C(CCC3(C)O2)C1(C)C (centres unmarked) [Compound 7e] | – | ≥100% | 72% | – | – | – | – | 75% |
| CCCCCc1cc(OCC(=O)NCCc2cc3ccccc3[nH]2)c2c(c1)OC1(C)CCC3C1C2C3(C)C (centres unmarked) [Compound 7h] | – | 72% | ≥100% | – | – | – | – | 87% |
| CCCCCc1cc(OCc2cn(S(=O)(=O)c3ccc(C)cc3)nn2)c2c(c1)OC1(C)CCC3C1C2C3(C)C (centres unmarked) [Compound 7i] | – | 50% | 21% | – | – | – | – | 71% |
| CCCCCc1cc(OC(C)=O)c2c(c1)OC1(C)CCC3C1C2C3(C)C (centres unmarked) [Compound 9b] | both the viability and selectivity were maintained | 28% | 82% | – | – | – | – | 92% |
| CCCCCc1cc(OC(=O)Cc2ccc3ccccc3c2)c2c(c1)OC1(C)CCC3C1C2C3(C)C (centres unmarked) [Compound 9e] | – | ≥100% | ≥100% | – | – | – | – | ≥ 100% |
| C=CC(=O)Oc1cc(CCCCC)cc2c1C1C3C(CCC3(C)O2)C1(C)C (centres unmarked) [Compound 9f] | – | 41% | 64% | – | – | – | – | 35% |
| CCCCCc1cc(OC(=O)/C=C/c2ccccc2)c2c(c1)OC1(C)CCC3C1C2C3(C)C (centres unmarked) [Compound 9g] | – | ≥100% | ≥100% | – | – | – | – | ≥ 100% |
| CCCCCc1cc(OC(=O)/C=C/c2ccc(OC)cc2)c2c(c1)OC1(C)CCC3C1C2C3(C)C (centres unmarked) [Compound 9h] | – | 90% | ≥100% | – | – | – | – | ≥ 100% |
| CCCCCc1cc(OC(=O)c2ccncc2)c2c(c1)OC1(C)CCC3C1C2C3(C)C (centres unmarked) [Compound 9i] | – | 91% | 88% | – | – | – | – | 91% |
| CCCCCc1cc(OC(=O)c2ccco2)c2c(c1)OC1(C)CCC3C1C2C3(C)C (centres unmarked) [Compound 9j] | – | ≥100% | ≥100% | – | – | – | – | ≥ 100% |
| CCCCCc1cc(OC(=O)CCCC[P+](c2ccccc2)(c2ccccc2)c2ccccc2)c2c(c1)OC1(C)CCC3C1C2C3(C)C (centres unmarked) [Compound 9s] | – | – | – | – | 40% | 17% | 21% | – |
| CCCCCc1cc(OC(=O)CCCCOc2cc(=O)oc3ccccc23)c2c(c1)OC1(C)CCC3C1C2C3(C)C (centres unmarked) [Compound 9t] | – | – | – | – | ≥100% | ≥100% | ≥ 100% | – |
